Laboratory results as given in patent US20250288603A1, “ANIMAL FOOD COMPOSITION COMPRISING A SOURCE OF GLYCYRRHIZIN” (MARS, INCORPORATED, priority 2022, published 2025).

Legend:
healthy adult dogs [1] = assay: Glycyrrhizin safety study: plasma aldosterone concentration; assay type: in vivo, dog; settings: adult dogs, 0.2, 0.4 and 0.6 mg/kg Bwt/day, 28 days each
Excerpt: (§1) Dogs. Sixteen privately owned healthy adult dogs, both male and female, were included in the study. In particular, the dogs were Beagles, Brittany spaniels or Dachshunds weighing between 5 and 21 kg. Twelve dogs were females and four dogs were males.
(§2) Glycyrrhizin Source. The glycyrrhizin source was provided by a licorice root extract comprising 12% glycyrrhizin formulated in gelatin capsules. The licorice root extract was commercially obtained from Naturex (Avignon, France), product reference DAB40178.
Commercially available pharmaceutical grade gelatin capsules (Capsuline, Dania Beach, Florida, US) were filled to capacity with precisely weight mixtures of licorice powder and 100% pure maltodextrin powder (Bulk Powders, Colchester, UK). […]
Dosage. The doses to be administered to each dog were calculated based on five different bodyweight groups. […]
Small volume blood samples (4 ml) were taken on the days indicated in the protocol description above in order to determine blood potassium, sodium and calcium, creatinine and aldosterone concentration. […] Urinary creatinine concentrations were also measured so that Fractional Excretion Rate (FER) for sodium, potassium and calcium could be calculated. […]

healthy adult dogs [2] = assay: Glycyrrhizin safety study: fractional potassium excretion; assay type: in vivo, dog; settings: for effect on fractional potassium excretion, D0 versus any later time point: adult dogs, 0.2, 0.4 and 0.6 mg/kg Bwt/day, 28 days each; for overall mean fractional potassium excretion: dogs
Excerpt: as §1, §2
(§3) Commercially available pharmaceutical grade gelatin capsules (Capsuline, Dania Beach, Florida, US) were filled to capacity with precisely weight mixtures of licorice powder and 100% pure maltodextrin powder (Bulk Powders, Colchester, UK). The weighed combinations of licorice and maltodextrin powders were prepared in such a way that, when mixed together and placed in the capsules, provided the dogs with daily glycyrrhizin doses according to the schedule of 0.2 mg/kg Bwt/day, followed by 0.4 mg/kg Bwt/day, followed by 0.6 mg/kg Bwt/day.
(§4) Dosage. The doses to be administered to each dog were calculated based on five different bodyweight groups. Separate capsules were weighed out for each group. The licorice root extract was mixed with maltodextrin order to deliver the same volume of overall powdered material to each dog. Capsules were fed to the dogs inside a meatball of wet petfood.
(§5) In total, three different doses of glycyrrhizin were fed to the dogs, in each case for 28 days. These dosages were 0.2 mg/kg of Bwt/day, 0.4 mg/kg of Bwt/day, and 0.6 mg/kg of Bwt/day.
(§6) Each of the dogs underwent the following protocol cycle, which was repeated for each of the tested concentrations. The first cycle was dosed at 0.2 mg of glycyrrhizin (Gly)/kg Bwt/day. The second cycle was dosed at 0.4 mg Gly/kg Bwt/day. The third cycle was dosed at 0.6 mg Gly/kg Bwt/day.
(§7) Days 2, 4, 7, 14, 21 and 28: Blood pressure and potassium, sodium and calcium, creatinine and aldosterone concentrations in the blood and urine measurements were taken.
Small volume blood samples (4 ml) were taken on the days indicated in the protocol description above in order to determine blood potassium, sodium and calcium, creatinine and aldosterone concentration. Free catch urine (minimum 3 ml) was conducted on each day as indicated above in order to determine concentrations of urinary potassium, sodium and calcium. Urinary creatinine concentrations were also measured so that Fractional Excretion Rate (FER) for sodium, potassium and calcium could be calculated.
FER is calculated according to the equation: […]
Statistics: A linear mixed model was used for assessing the effect of Diet (Glycyrrhizin dose). Animal was modelled as random term. Tukey HSD was used for alpha correction for multiple comparisons. Level of significance was set at 5% for two-sided test.
Fractional Potassium Excretion. The results are expressed in percentage of the potassium excreted in the urine as compared to the amount of potassium filtered and retained by the kidneys.

[3] = dogs; cited from earlier work
healthy adult dogs [4] = assay: Glycyrrhizin safety study: systolic blood pressure (oscillometric method); assay type: in vivo, dog; settings: for effect on blood pressure, D0 versus any later time point: adult dogs, 0.2, 0.4 and 0.6 mg/kg Bwt/day, 28 days each; for overall mean systolic blood pressure: dogs
Excerpt: as §1, §2, §3, §4, §5, §6
Day 1: Baseline measurements were taken: blood pressure and potassium, sodium and calcium, creatinine and aldosterone concentrations in the blood and urine.
Day 0: Dosing of licorice began (the concentration of glycyrrhizin is adapted according to the first, second or third cycle of the protocol, as indicated above). One dose was provided to each dog per day, with their morning meal.
Days 1-27: One dose was provided to each dog per day, with their morning meal.
as §7
Day 28: Washout began and the dogs returned to their maintenance diet alone, i.e., no more licorice was fed to them. The washout period lasted two weeks. At days 34 and 41 blood pressure and potassium, sodium and calcium, creatinine and aldosterone concentrations in the blood and urine measurements were taken again.
Protocol Details. The licorice root extract was dosed according to the given glycyrrhizin (Gly) concentrations for each cycle of the protocol in sequence: 0.2 mg/kg Bwt/day, 0.4 mg/kg Bwt/day, and 0.6 mg/kg Bwt/day.
Blood pressure was measured for each animal on multiple occasions, the first reading being discarded. BP was measured via the Oscillometric method. Each measurement, if it was shown that a dog's average blood pressure has risen to a potentially deleterious level (normally >160 mmgHg), could result in removal of a dog from the study (temporarily or permanently), according to veterinarian's discretion. All dogs were habituated to the Oscillometic device and the process of BP measurement before the start of the study. If there was evidence of stress for any dog before or during the BP procedure, the procedure for that dog was stopped and restarted when the dog was calmed again. Where necessary a dog could be given interim intensive habituation. […] Typical blood pressure ranges for the 3 breeds used were known and were considered when judging the normality of the BP measurements taken during the study. […]

[5] = 0.2 mg Gly/kg Bwt/day oral, Day 0
[6] = 0.2 mg Gly/kg Bwt/day oral, Day 2
[7] = 0.2 mg Gly/kg Bwt/day oral, Day 4
[8] = 0.2 mg Gly/kg Bwt/day oral, Day 7
[9] = 0.2 mg Gly/kg Bwt/day oral, Day 14
[10] = 0.2 mg Gly/kg Bwt/day oral, Day 21
[11] = 0.2 mg Gly/kg Bwt/day oral, Day 28
[12] = 0.4 mg Gly/kg Bwt/day oral, Day 0
[13] = 0.4 mg Gly/kg Bwt/day oral, Day 2
[14] = 0.4 mg Gly/kg Bwt/day oral, Day 4
[15] = 0.4 mg Gly/kg Bwt/day oral, Day 7
[16] = 0.4 mg Gly/kg Bwt/day oral, Day 14
[17] = 0.4 mg Gly/kg Bwt/day oral, Day 21
[18] = 0.4 mg Gly/kg Bwt/day oral, Day 28
[19] = 0.6 mg Gly/kg Bwt/day oral, Day 0
[20] = 0.6 mg Gly/kg Bwt/day oral, Day 2
[21] = 0.6 mg Gly/kg Bwt/day oral, Day 4
[22] = 0.6 mg Gly/kg Bwt/day oral, Day 7
[23] = 0.6 mg Gly/kg Bwt/day oral, Day 14
[24] = 0.6 mg Gly/kg Bwt/day oral, Day 21
[25] = 0.6 mg Gly/kg Bwt/day oral, Day 28

In the case of CC1(C)[C@@H](O[C@H]2O[C@H](C(=O)O)[C@@H](O)[C@H](O)[C@H]2O[C@@H]2O[C@H](C(=O)O)[C@@H](O)[C@H](O)[C@H]2O)CC[C@]2(C)[C@H]3C(=O)C=C4[C@@H]5C[C@@](C)(C(=O)O)CC[C@]5(C)CC[C@@]4(C)[C@]3(C)CC[C@@H]12 [Gly, glycyrrhizin], the “effect on plasma aldosterone concentration, D0 versus any later time point” value (healthy adult dogs [1]) is reported as “no significant difference”, the “effect on plasma aldosterone concentration, D0 versus any later time point” value (healthy adult dogs [1]; listed as Glycyrrhizin) is reported as “no significant impact” and the “effect on fractional potassium excretion, D0 versus any later time point” value (healthy adult dogs [2]) is reported as “no significant difference”. For the same compound, the “effect on fractional potassium excretion, D0 versus any later time point” value (healthy adult dogs [2]; listed as Glycyrrhizin) was “no significant impact”, the “overall mean fractional potassium excretion” value (healthy adult dogs [2]; [5]) was 16.54% and the “overall mean fractional potassium excretion” value (healthy adult dogs [2]; [6]) was 15.74%. For the same compound, the “overall mean fractional potassium excretion” value (healthy adult dogs [2]; [7]) was 15.59%, the “overall mean fractional potassium excretion” value (healthy adult dogs [2]; [8]) was 15.06% and the “overall mean fractional potassium excretion” value (healthy adult dogs [2]; [9]) was 13.33%. For the same compound, the “overall mean fractional potassium excretion” value (healthy adult dogs [2]; [10]) was 20.02%, the “overall mean fractional potassium excretion” value (healthy adult dogs [2]; [11]) was 16.54% and the “overall mean fractional potassium excretion” value (healthy adult dogs [2]; [12]) was 16.02%. For the same compound, the “overall mean fractional potassium excretion” value (healthy adult dogs [2]; [13]) was 15.56%, the “overall mean fractional potassium excretion” value (healthy adult dogs [2]; [14]) was 16.02% and the “overall mean fractional potassium excretion” value (healthy adult dogs [2]; [15]) was 15.72%. The “overall mean fractional potassium excretion” value (healthy adult dogs [2]; [16]) was 16.87%, the “overall mean fractional potassium excretion” value (healthy adult dogs [2]; [17]) was 16.09% and the “overall mean fractional potassium excretion” value (healthy adult dogs [2]; [18]) was 16.27%. The “overall mean fractional potassium excretion” value (healthy adult dogs [2]; [19]) was 16.48%, the “overall mean fractional potassium excretion” value (healthy adult dogs [2]; [20]) was 18.08% and the “overall mean fractional potassium excretion” value (healthy adult dogs [2]; [21]) was 17.48%. For the same compound, the “overall mean fractional potassium excretion” value (healthy adult dogs [2]; [22]) was 13.15%, the “overall mean fractional potassium excretion” value (healthy adult dogs [2]; [23]) was 15.64% and the “overall mean fractional potassium excretion” value (healthy adult dogs [2]; [24]) was 14.93%. The “overall mean fractional potassium excretion” value (healthy adult dogs [2]; [25]) was 16.48%, the “Presumed Safe Intake (PSI)” value [3] was 1 mg/kg of complete feed and the “Presumed Safe Intake (PSI), estimated amount per bodyweight” value [3] was ~0.02 mg/kg of bodyweight (Bwt) per day. The “Presumed Safe Intake (PSI), estimated daily amount” value [3] was ~0.3 mg/day, the “effect on blood pressure, D0 versus any later time point” value (healthy adult dogs [4]) was “no significant difference” and the “effect on blood pressure, D0 versus any later time point” value (healthy adult dogs [4]; listed as Glycyrrhizin) was “no significant impact”. The “overall mean systolic blood pressure” value (healthy adult dogs [4]; [5]) was 120 mmHg, the “overall mean systolic blood pressure” value (healthy adult dogs [4]; [6]) was 127 mmHg and the “overall mean systolic blood pressure” value (healthy adult dogs [4]; [7]) was 125 mmHg. For the same compound, the “overall mean systolic blood pressure” value (healthy adult dogs [4]; [8]) was 126 mmHg, the “overall mean systolic blood pressure” value (healthy adult dogs [4]; [9]) was 126 mmHg and the “overall mean systolic blood pressure” value (healthy adult dogs [4]; [10]) was 122 mmHg. For the same compound, the “overall mean systolic blood pressure” value (healthy adult dogs [4]; [11]) was 121 mmHg, the “overall mean systolic blood pressure” value (healthy adult dogs [4]; [12]) was 118 mmHg and the “overall mean systolic blood pressure” value (healthy adult dogs [4]; [13]) was 117 mmHg. The “overall mean systolic blood pressure” value (healthy adult dogs [4]; [14]) was 119 mmHg, the “overall mean systolic blood pressure” value (healthy adult dogs [4]; [15]) was 125 mmHg and the “overall mean systolic blood pressure” value (healthy adult dogs [4]; [16]) was 122 mmHg. The “overall mean systolic blood pressure” value (healthy adult dogs [4]; [17]) was 120 mmHg, the “overall mean systolic blood pressure” value (healthy adult dogs [4]; [18]) was 124 mmHg and the “overall mean systolic blood pressure” value (healthy adult dogs [4]; [19]) was 125 mmHg. The “overall mean systolic blood pressure” value (healthy adult dogs [4]; [20]) was 119 mmHg, the “overall mean systolic blood pressure” value (healthy adult dogs [4]; [21]) was 123 mmHg and the “overall mean systolic blood pressure” value (healthy adult dogs [4]; [22]) was 125 mmHg. For the same compound, the “overall mean systolic blood pressure” value (healthy adult dogs [4]; [23]) was 123 mmHg, the “overall mean systolic blood pressure” value (healthy adult dogs [4]; [24]) was 124 mmHg and the “overall mean systolic blood pressure” value (healthy adult dogs [4]; [25]) was 122 mmHg.
